Each molecule was assayed against HIV-1 protease (Human immunodeficiency virus type 1 group M subtype B, UniProt P04585) (assay: Inhibition constants against HIV-1 protease (method of Pennington et al.)). Details: HIV-1 protease; read-out: Ki value.
Format: biochemical
From the text: We measured the inhibition constants of the compounds listed in Table VII against HIV-1 protease using the above-cited method of Pennington et al.

Going from `Cc1nc(C)c(S(=O)(=O)N(CC(C)C)C[C@@H](O)[C@H](Cc2ccccc2)NC(=O)OC(C)(C)C)s1` [Compound 46] to `CC(C)CN(C[C@@H](O)[C@H](Cc1ccccc1)NC(=O)OC(C)(C)C)S(=O)(=O)c1ccc(F)cc1F` [Compound 49], the Ki falls from 154 nM to 9 nM (17-fold). The second binds more tightly here.

`CC(=O)Nc1ccc(S(=O)(=O)N(CC(C)C)C[C@@H](O)[C@H](Cc2ccccc2)NC(=O)O[C@H]2CCOC2)cc1` [Compound 48, N-(4-(((2 syn,3S)-2-Hydroxy-4-phenyl-3-((S)-tetrahydrofuran-3-yloxycarbonylamino)-butyl)-isobutyl-sulfamoyl)-phenyl)-acetamide] and `CC(=O)Nc1ccc(S(=O)(=O)N(CC(C)C)C[C@@H](O)[C@H](Cc2ccccc2)NC(=O)O[C@@H]2CCOC2)cc1` [Compound 94, N-(4-(((syn)-2-Hydroxy-(S)-4-phenyl-3-((tetrahydro-furan-(R)-3-yl)-oxycarbonylamino)-butyl)-isobutyl-sulfamoyl)-phenyl)-acetamide] are within 1.5-fold of each other in Ki: 1.4 nM for the first, 1.7 nM for the second.

Compared with `CC(=O)Nc1ccc(S(=O)(=O)N(CC(C)C)C[C@@H](O)[C@H](Cc2ccccc2)NC(=O)O[C@H]2CCOC2)cc1Cl` [Compound 53], `CC(=O)Nc1cc(S(=O)(=O)N(CC(C)C)C[C@@H](O)[C@H](Cc2ccccc2)NC(=O)O[C@H]2CCOC2)ccc1F` [Compound 88, N-(2-Fluoro-5-(((2 syn,3S)-2-hydroxy-4-phenyl-3-((S)-tetrahydrofuran-3-yloxycarbonylamino)-butyl)-isobutyl-sulfamoyl)-phenyl)-acetamide] is 19-fold lower in Ki: 27 nM for the first, 1.4 nM for the second.

Going from `CC(=O)Nc1cc(S(=O)(=O)N(CC(C)C)C[C@@H](O)[C@H](Cc2ccccc2)NC(=O)OC(C)(C)C)ccc1F` [Compound 54] to `CC(C)CN(C[C@@H](O)[C@H](Cc1ccccc1)NC(=O)OC(C)(C)C)S(=O)(=O)c1ccc2nonc2c1` [Compound 64], the Ki falls from 22 nM to 3 nM (7.3-fold).

Compared with `CC(=O)Nc1cc(S(=O)(=O)N(CC(C)C)C[C@@H](O)[C@H](Cc2ccccc2)NC(=O)c2cc(C(C)(C)C)nn2Cc2ccccc2)ccc1F` [Compound 55], `CC(=O)Nc1ccc(S(=O)(=O)N(CC(C)C)C[C@@H](O)[C@H](Cc2ccccc2)NC(=O)OCc2ccccc2)cc1` [Compound 61] is 110-fold lower in Ki: 430 nM for the first, 4 nM for the second.

Going from `CC(C)CN(C[C@@H](O)[C@H](Cc1ccccc1)NC(=O)O[C@@H](C)c1ccccc1)S(=O)(=O)c1cccc2nonc12` [Compound 56] to `CC(C)CN(C[C@@H](O)[C@H](Cc1ccccc1)NC(=O)O[C@H](C)c1ccccc1)S(=O)(=O)c1cccc2nonc12` [Compound 59], the Ki rises from 60 nM to 206 nM (3.4-fold).

Compared with `CC(C)CN(C[C@@H](O)[C@H](Cc1ccccc1)NC(=O)COc1ccccc1)S(=O)(=O)c1cccc2nonc12` [Compound 57], `CC(C)CN(C[C@@H](O)[C@H](Cc1ccccc1)NC(=O)OC(C)(C)C)S(=O)(=O)c1cccc2nonc12` [Compound 58] is 5.9-fold lower in Ki: 200 nM for the first, 34 nM for the second. The second binds more tightly here.

Compared with `CC(C)CN(C[C@@H](O)[C@H](Cc1ccccc1)NC(=O)O[C@H]1CCOC1)S(=O)(=O)c1cccc2nonc12` [Compound 60], `CC(C)CN(C[C@@H](O)[C@H](Cc1ccccc1)NC(=O)O[C@H]1CCOC1)S(=O)(=O)c1ccc2nonc2c1` [Compound 66] is 10-fold lower in Ki: 4 nM for the first, 0.4 nM for the second.

First: CC(C)CN(C[C@@H](O)[C@H](Cc1ccccc1)NC(=O)OCc1ccccc1)S(=O)(=O)c1ccc(N)c([N+](=O)[O-])c1 [Compound 63]
Second: CC(C)CN(C[C@@H](O)[C@H](Cc1ccccc1)NC(=O)OCc1ccccc1)S(=O)(=O)c1ccc2nonc2c1 [Compound 65]
The Ki of the first is 10-fold higher: 7 nM for the first, 0.7 nM for the second.

Going from `CC(=O)Nc1ccc(S(=O)(=O)N(CC(C)C)C[C@@H](O)[C@H](Cc2ccccc2)NC(=O)C(NC(N)=O)NC(N)=O)cc1` [Compound 67] to `CC(=O)Nc1ccc(COC(=O)N[C@@H](Cc2ccccc2)[C@H](O)CN(CC(C)C)S(=O)(=O)c2ccc(NC(C)=O)cc2)cc1` [Compound 96], the Ki falls from 7400 nM to 8 nM (920-fold).

Going from `CC(C)CN(C[C@@H](O)[C@H](Cc1ccccc1)NC(=O)O[C@H]1CCOC1)S(=O)(=O)N(C)C` [Compound 69] to `CC(C)CN(C[C@@H](O)[C@H](Cc1ccccc1)NC(=O)O[C@H]1CCOC1)S(=O)(=O)c1cc(Cl)c(Cl)s1` [Compound 95], the Ki falls from 42 nM to 1.3 nM (32-fold).

Going from `CC(=O)Nc1cc(S(=O)(=O)N[C@@H](Cc2ccccc2)[C@H](O)CN(CC(C)C)S(=O)(=O)c2ccc(F)c(NC(C)=O)c2)ccc1F` [Compound 70] to `COc1ccc(OC)c(S(=O)(=O)N[C@@H](Cc2ccccc2)[C@H](O)CN(CC(C)C)S(=O)(=O)c2ccc(F)c(NC(C)=O)c2)c1` [Compound 73], the Ki rises from 25 nM to 140 nM (5.6-fold). The first binds more tightly here.

Going from `CC(C)CN(C[C@@H](O)[C@H](Cc1ccccc1)NS(=O)(=O)N(C)C)S(=O)(=O)c1cccc2nonc12` [Compound 71] to `CC(C)CN(C[C@@H](O)[C@H](Cc1ccccc1)NS(=O)(=O)N(C)C)S(=O)(=O)N(C)C` [Compound 72], the Ki rises from 470 nM to 4000 nM (8.5-fold). The first binds more tightly here.

First: CC(C)(C)OC(=O)N[C@@H](Cc1ccccc1)[C@H](O)CN(CC1CC1)S(=O)(=O)c1ccc(F)cc1 [Compound 74]
Second: CC(C)(C)OC(=O)N[C@@H](Cc1ccccc1)[C@H](O)CN(CC1CCCC1)S(=O)(=O)c1ccc(Cl)c(Cl)c1 [Compound 84]
The Ki of the first is 7.9-fold higher: 11 nM for the first, 1.4 nM for the second. The second binds more tightly here.

`C=CCOC(=O)N[C@@H](Cc1ccccc1)[C@H](O)CN(CC(C)C)S(=O)(=O)c1ccc(Cl)c(Cl)c1` [Compound 81] and `CCCOC(=O)N[C@@H](Cc1ccccc1)[C@H](O)CN(CC(C)C)S(=O)(=O)c1ccc(Cl)c(Cl)c1` [Compound 89] are within 1.5-fold of each other in Ki: 2.3 nM for the first, 2 nM for the second.

Going from `CC(C)CN(C[C@@H](O)[C@H](Cc1ccccc1)NC(=O)OCc1cccnc1)S(=O)(=O)c1ccc2nonc2c1` [Compound 82] to `CC(C)CN(C[C@@H](O)[C@H](Cc1ccccc1)NC(=O)OCc1cccnc1)S(=O)(=O)c1ccc(F)cc1` [Compound 98, 4-Fluoro-N-((2 syn,3S)-2-hydroxy-4-phenyl-3-(pyridin-3-yl-methoxycarbonylamino)-butyl)-N-isobutyl-benzenesulfonamide], the Ki falls from 1.5 nM to 0.5 nM (3-fold). The second binds more tightly here.

First: CCCOC(=O)N[C@@H](Cc1ccccc1)[C@H](O)CN(CC(C)C)S(=O)(=O)c1ccc(NC(C)=O)c(Cl)c1 [Compound 90]
Second: CC(=O)Nc1cccc(S(=O)(=O)N(CC(C)C)C[C@@H](O)[C@H](Cc2ccccc2)NC(=O)O[C@H]2CCOC2)c1 [Compound 91, N-(3-(((2 syn,3S)-2-Hydroxy-4-phenyl-3-((S)-tetrahydrofuran-3-yloxycarbonylamino)-butyl)-isobutyl-sulfamoyl)-phenyl)-acetamide]
The Ki of the first is 37-fold higher: 93 nM for the first, 2.5 nM for the second.

Going from `CC(C)CN(C[C@@H](O)[C@H](Cc1ccccc1)NC(=O)O[C@@H]1CCOC1)S(=O)(=O)c1ccc(F)cc1` [Compound 93, 4-Fluoro-N-((2 syn,3S)-2-hydroxy-4-phenyl-3-((R)-tetrahydrofuran-3-yloxycarbonylamino)-butyl)-N-isobutyl-benzenesulfonamide] to `CC(C)CN(C[C@@H](O)[C@H](Cc1ccccc1)NC(=O)O[C@H]1CCOC1)S(=O)(=O)c1ccc(Cl)cc1` [Compound 99, 4-Chloro-N-((2 syn,3S)-2-hydroxy-4-phenyl-3-((S)-tetrahydrofuran-3-yloxycarbonylamino)-butyl)-isobutyl-benzenesulfonamide], the Ki falls from 0.8 nM to 0.24 nM (3.3-fold). The second binds more tightly here.

Reference: US20080293727A1, “Novel sulfonamide inhibitors of aspartyl protease” (priority 1992, published 2008)
